Among the test systems are NCI/ADR-RES ovarian; T-47D breast; TK-10 renal; A498 renal; HOP-92 NSCLC; SF-295 CNS; NCI-H460 lung; UACC-257 melanoma; OVCAR-5 ovarian; SK-MEL-2 melanoma; SF-539 CNS; HCC-2998 colon.
Assay in all cases: inhibition of tumour cell growth, NCI panel, 48 h

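Compound exposure: 48 hours, 5 concentrations, 96-well plates. The concentration for 50% growth inhibition is given as GI50. The concentration for full growth arrest is given as TGI.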

On to `CCS(=O)(=O)CCn1cnc2c1c(=O)n(C)c(=O)n2C`, for which the TGI in the test on NCI/ADR-RES ovarian, with T-47D breast, in the test with TK-10 renal, in the test on A498 renal, in the test with HOP-92 NSCLC and in the test with SF-295 CNS was above 100 µM each time. The TGI in the test with NCI-H460 lung, with UACC-257 melanoma, with OVCAR-5 ovarian, in the test on SK-MEL-2 melanoma, with SF-539 CNS and in the test on HCC-2998 colon was above 100 µM throughout.
As to `C=CCNC1=C2C[C@@H](C)C[C@@H](OC)[C@H](OC(=O)CN)[C@H](C)/C=C(\C)[C@@H](OC(N)=O)[C@H](OC)/C=C\C=C(/C)C(=O)NC(=CC1=O)C2=O`, the TGI is above 100 µM with NCI/ADR-RES ovarian; above 25.5 µM in the test with T-47D breast; 14.2 µM in the test with TK-10 renal; 28.4 µM with A498 renal; 8.71 µM in the test on HOP-92 NSCLC; 12.6 µM in the test with SF-295 CNS. In addition, the TGI is 18.3 µM in the test on NCI-H460 lung; 15.7 µM in the test with UACC-257 melanoma; 25 µM in the test on OVCAR-5 ovarian; 18.7 µM in the test with SK-MEL-2 melanoma; 15.9 µM with SF-539 CNS; 1.29 µM in the test with HCC-2998 colon.
On to `CC1OC(OC2C(O)COC(OC3C(C)OC(OC4C(OC(=O)[C@]56CCC(C)(C)C[C@@H]5C5=CCC7[C@@]8(C)C[C@H](O)[C@H](OC9OC(CO)C(O)C(OC%10OC(CO)C(O)C(O)C%10O)C9O)[C@@](C)(CO)[C@@H]8CC[C@@]7(C)[C@]5(C)CC6)OCC(O)C4O)C(O)C3O)C2O)C(O)C(O)C1O` (stereo partly drawn), for which the TGI with NCI/ADR-RES ovarian worked out at 31.9 µM; in the test on T-47D breast it was 35.5 µM; with TK-10 renal it was 34.2 µM; in the test on A498 renal, 26 µM; in the test on HOP-92 NSCLC, 38.4 µM; in the test on SF-295 CNS it was 28.4 µM. Further, the TGI in the test on NCI-H460 lung was 40.2 µM; in the test on UACC-257 melanoma it was 35.6 µM; in the test on OVCAR-5 ovarian, 27 µM; in the test with SK-MEL-2 melanoma, 36 µM; in the test with SF-539 CNS it was 34.4 µM; in the test on HCC-2998 colon it was 32.9 µM.
As for `Cc1ccc(/C=C/C(=N/NC(=O)N/N=C(/C=C/c2ccc(C)cc2)C(C)(C)CN2CCCCC2)C(C)(C)CN2CCCCC2)cc1`, the TGI in the test with NCI/ADR-RES ovarian amounted to 3.08 µM; in the test with T-47D breast, 4.02 µM; in the test with TK-10 renal it was 3.26 µM; with A498 renal it was 3.12 µM; with HOP-92 NSCLC it was 3.44 µM; in the test on SF-295 CNS it was 3.13 µM. Also, the TGI turned out to be 3.08 µM with NCI-H460 lung; 3.1 µM with UACC-257 melanoma; 4.98 µM in the test with OVCAR-5 ovarian; 3.44 µM in the test with SK-MEL-2 melanoma; 3.24 µM in the test on SF-539 CNS; 3.21 µM with HCC-2998 colon.
As for `O=C1/C(=C/c2ccc(Cl)cc2)N=C(c2ccccc2)N1c1ccc(S(=O)(=O)Nc2nccs2)cc1`, the TGI in the test on NCI/ADR-RES ovarian was above 100 µM; in the test with T-47D breast, 75.2 µM; in the test on TK-10 renal, above 100 µM; with A498 renal it was above 100 µM; with HOP-92 NSCLC, 90.7 µM; with SF-295 CNS, above 100 µM. Besides, the TGI in the test on NCI-H460 lung is above 100 µM; in the test with UACC-257 melanoma, above 100 µM; in the test on OVCAR-5 ovarian, above 100 µM; with SK-MEL-2 melanoma, 47.3 µM; in the test on SF-539 CNS it was above 100 µM; in the test on HCC-2998 colon it was 47.4 µM.
Consider `CN(C)C(=O)Oc1ccc(-c2cn3cc(NC(=O)c4ccccc4)ccc3n2)cc1`, for which the TGI in the test with NCI/ADR-RES ovarian, in the test with T-47D breast, with TK-10 renal, in the test on A498 renal, with HOP-92 NSCLC and in the test with SF-295 CNS was above 100 µM each time. Moreover, the TGI with NCI-H460 lung, with UACC-257 melanoma, in the test with OVCAR-5 ovarian, in the test on SK-MEL-2 melanoma, in the test on SF-539 CNS and with HCC-2998 colon was above 100 µM in each case.
Regarding `CCOC(=O)/C=C(/C(=O)OCC)n1ccc(=O)n(/C(=C/C(=O)OCC)C(=O)OCC)c1=O`, the TGI is 55.3 µM with NCI/ADR-RES ovarian; 15.9 µM in the test on T-47D breast; 17.6 µM with TK-10 renal; 38.8 µM in the test with A498 renal; 4.11 µM in the test on HOP-92 NSCLC; 55.1 µM in the test with SF-295 CNS. In addition, the TGI is 34.3 µM in the test with NCI-H460 lung; 24.5 µM in the test with UACC-257 melanoma; 31.2 µM with OVCAR-5 ovarian; 17.6 µM with SK-MEL-2 melanoma; 34.2 µM with SF-539 CNS; 35 µM with HCC-2998 colon.
Consider `C=CC(C)CCC(C/C=C(\C)CCC=C(C)C)C(=C)CCCC(C)C` (stereo not drawn), for which the TGI in the test with NCI/ADR-RES ovarian, in the test on T-47D breast, in the test with TK-10 renal, in the test on A498 renal, in the test with HOP-92 NSCLC and in the test on SF-295 CNS was above 100 µM in each case. Moreover, the TGI with NCI-H460 lung, in the test with UACC-257 melanoma, in the test with OVCAR-5 ovarian, with SK-MEL-2 melanoma, in the test on SF-539 CNS and with HCC-2998 colon was above 100 µM throughout.
For `C=CCOC(=O)[C@@H]1C[C@@H](OC(C)(C)C)CN1C(=O)[C@@H]1[C@H]2OC(C)(C)O[C@H]2CN1C(=O)OCC1c2ccccc2-c2ccccc21`, the TGI with NCI/ADR-RES ovarian came out at 9.87 µM; in the test on T-47D breast, 45 µM; in the test on TK-10 renal it was 32.5 µM; with A498 renal, 30.5 µM; in the test with HOP-92 NSCLC, 35 µM; in the test on SF-295 CNS, 34.4 µM. Further, the TGI in the test with NCI-H460 lung is 23.6 µM; in the test on UACC-257 melanoma, 35.4 µM; with OVCAR-5 ovarian, 32.9 µM; in the test with SK-MEL-2 melanoma it was above 55 µM; with SF-539 CNS, 28.9 µM; in the test on HCC-2998 colon, 30.7 µM.
Regarding `C=C1C(=O)O[C@H]2[C@H]1CC(=O)/C(C)=C/CC[C@@]1(C)O[C@@H]21`, the TGI in the test with NCI/ADR-RES ovarian came out at 10.8 µM; in the test with T-47D breast it was 2.93 µM; in the test with TK-10 renal, 2.65 µM; in the test on A498 renal, 3.6 µM; with HOP-92 NSCLC, 1.65 µM; with SF-295 CNS, 31.6 µM. For the same compound, the TGI in the test with NCI-H460 lung was 29.8 µM; in the test on UACC-257 melanoma, 5.57 µM; in the test on OVCAR-5 ovarian it was 6.87 µM; in the test with SK-MEL-2 melanoma, 8.47 µM; with SF-539 CNS, 4.6 µM; in the test on HCC-2998 colon it was 6.02 µM. The GI50 in the test with UACC-257 melanoma is 2 µM.
For `O=C(c1ccccc1)c1sc2c(=O)c(C(=O)c3ccccc3)c(C(=O)c3ccccc3)sc2c(=O)c1C(=O)c1ccccc1`, the TGI in the test on NCI/ADR-RES ovarian was 74.9 µM; in the test on T-47D breast it was above 100 µM; in the test on TK-10 renal, above 100 µM; with A498 renal it was above 100 µM; in the test on HOP-92 NSCLC it was above 100 µM; in the test with SF-295 CNS, above 100 µM. Further, the TGI is above 100 µM with NCI-H460 lung; above 100 µM in the test on UACC-257 melanoma; above 100 µM in the test with OVCAR-5 ovarian; above 100 µM with SK-MEL-2 melanoma; 51.1 µM in the test with SF-539 CNS; 44 µM with HCC-2998 colon.
`COc1cc2cc(C(=O)N3CC(CCl)c4ccccc43)[nH]c2c(OC)c1OC` (stereo not drawn): the TGI is above 100 µM with NCI/ADR-RES ovarian; above 89.4 µM in the test on T-47D breast; above 100 µM in the test on TK-10 renal; above 100 µM in the test with A498 renal; above 100 µM in the test with HOP-92 NSCLC; above 100 µM in the test with SF-295 CNS. Moreover, the TGI in the test with NCI-H460 lung was above 57.4 µM; in the test with UACC-257 melanoma, above 100 µM; with OVCAR-5 ovarian it was above 100 µM; in the test with SK-MEL-2 melanoma, above 100 µM; with SF-539 CNS, above 100 µM; in the test on HCC-2998 colon, above 100 µM.
For `O=C(NC(Nc1ccc(F)c(Cl)c1)(C(F)(F)F)C(F)(F)F)OCc1ccccc1`, the TGI in the test with NCI/ADR-RES ovarian is above 100 µM; in the test with T-47D breast, above 100 µM; in the test with TK-10 renal, above 100 µM; in the test on A498 renal it was above 100 µM; in the test on HOP-92 NSCLC it was 95 µM; in the test on SF-295 CNS it was 91.7 µM. Also, the TGI is above 100 µM with NCI-H460 lung; above 100 µM in the test with UACC-257 melanoma; above 100 µM in the test with OVCAR-5 ovarian; above 100 µM in the test on SK-MEL-2 melanoma; 42.6 µM in the test with SF-539 CNS; 64.8 µM with HCC-2998 colon.
`Cc1c(C)c2c(c(N)c1C#N)C(=O)N(CCN1CCNCC1)C2=O`: the TGI in the test with NCI/ADR-RES ovarian was above 100 µM; with T-47D breast, above 100 µM; with TK-10 renal, above 100 µM; with A498 renal, 72.3 µM; in the test with HOP-92 NSCLC, above 100 µM; in the test with SF-295 CNS, above 100 µM. Moreover, the TGI with NCI-H460 lung is above 100 µM; in the test with UACC-257 melanoma it was above 100 µM; with OVCAR-5 ovarian, 81.1 µM; with SK-MEL-2 melanoma, above 100 µM; with SF-539 CNS, above 100 µM; in the test with HCC-2998 colon, above 100 µM.
Take `C=CC[C@@]1(C)CCCCCCCCC[C@@](C)(CC=C)C1=O`: the TGI is above 100 µM in the test on NCI/ADR-RES ovarian; 60.9 µM with T-47D breast; above 100 µM in the test on TK-10 renal; 36.4 µM with A498 renal; above 100 µM with HOP-92 NSCLC; 37.4 µM in the test with SF-295 CNS. In addition, the TGI in the test on NCI-H460 lung was 59.1 µM; with UACC-257 melanoma, 58.6 µM; with OVCAR-5 ovarian it was above 100 µM; in the test on SK-MEL-2 melanoma it was 37.9 µM; in the test with SF-539 CNS, above 100 µM; with HCC-2998 colon, 35 µM.
With `CCCCC(=O)Oc1ccc2c(C)cc(=O)oc2c1`, the TGI in the test with NCI/ADR-RES ovarian, with T-47D breast, in the test on TK-10 renal, in the test on A498 renal, in the test with HOP-92 NSCLC and in the test on SF-295 CNS was above 100 µM each time. Further, the TGI in the test with NCI-H460 lung, in the test with UACC-257 melanoma, with OVCAR-5 ovarian, with SK-MEL-2 melanoma, in the test with SF-539 CNS and in the test with HCC-2998 colon was above 100 µM throughout.
